Patent US4046904A, “Novel penicillin, and its preparation and use” (Sumitomo Chemical Company, Limited, priority 1975, dated 1977)
≈ marks a conversion by molar mass, not a printed value. Where two headings read alike, the source gives them in different places.

Columns and labels:
[1] = solubility in pharmaceutical diluents; format: physicochemical; settings: e.g. water; relative to said penicillins
[2] = system: Escherichia coli; assay: MIC (Table 3); format: cell-based
Excerpt: (§1) The minimum inhibitory concentrations obtained with Compound (I) and Compound (C) against the following organisms representing 6 genera are shown in Table 3.
(§2) Note: Compound (I) and Compound (C) were subjected to the test in the form of the sodium salt.

[3] = system: Proteus vulgaris; assay: MIC (Table 3); format: cell-based; settings: Proteus vulgaris strain HX19; sodium salt
Excerpt: as §1, §2

[4] = system: Klebsiella pneumoniae; assay: MIC (Table 3); format: cell-based; settings: Klebsiella pneumoniae strain PCI602; sodium salt
Excerpt: as §1, §2

[5] = system: Proteus mirabilis; assay: MIC (Table 3); format: cell-based
Excerpt: as §1, §2

[6] = system: Staphylococcus aureus; assay: MIC (Table 3); format: cell-based
Excerpt: as §1, §2

[7] = system: Pseudomonas aeruginosa; assay: MIC (Table 3); format: cell-based; settings: Pseudomonas aeruginosa strain 104; sodium salt
Excerpt: as §1, §2

[8] = Urinary excretion rate in rats after intramuscular administration (Table 8); format: in vivo, Wistar-HLA strain rats; settings: rat, urine, im, 20 mg/kg, male rats, intramuscular 20 mg/kg, sodium salt
Protocol: The urinary excretion rates of Compound (I) and Compound (C) following an intramuscular administration of 20 mg/kg in male Wistar-HLA strain rats are shown in Table 8.
as §2

[9] = system: Escherichia coli; assay: Intraperitoneal infection in mice, median protective dose (Table 2); format: in vivo; settings: sc, subcutaneous, 1 and 4 hours after infection, sodium salt, read-out: PD50
Protocol: (§3) Note: Compound (I), Compound (A) and Compound (B) were subjected to the test in the form of the sodium salt. For each test, eight male ICR-SLC strain mice were used at each dose level. MIC was determined by the nutrient broth dilution method. In determination of PD50, subcutaneous treatment was carried out twice, i.e. 1 and 4 hours after infection.

[10] = system: Klebsiella pneumoniae; assay: as above; format: in vivo; settings: subcutaneous; for ED50: sc, 1 and 4 hours after infection, sodium salt, read-out: PD50
Protocol: as §3

[11] = system: Pseudomonas aeruginosa; assay: as above; format: in vivo; settings: subcutaneous; for ED50: sc, 1 and 4 hours after infection, sodium salt, read-out: PD50
Protocol: as §3

[12] = system: Staphylococcus aureus; assay: Median MIC, clinical isolates, agar-plate dilution (Table 4); format: cell-based
Protocol: (§4) Note: Compound (I) and Compound (C) were subjected to the test in the form of the sodium salt. MIC was determined using the agar-plate dilution method.

[13] = system: Streptococcus faecalis; assay: as above; format: cell-based
Protocol: as §4

[14] = Serum level in mice after subcutaneous administration (Table 7); format: in vivo, ICR-SLC strain mice; settings: mouse, sc, subcutaneous 50 mg/kg, sodium salt
Protocol: The peak serum concentrations of Compound (I) and Compound (C) in ICR strain mice following subcutaneous administration at 50 mg/kg are shown in Table 7.
Note: Compound (I) and Compound (C) were subjected to the test in the form of the sodium salt. For the test, three male ICR-SLC strain mice were used. The bioassay was carried out according to the disc method using Bacillus subtilis.

[15] = system: Klebsiella pneumoniae; assay: MIC, nutrient broth dilution (Table 5); format: cell-based; settings: Klebsiella pneumoniae strain No. 1, sodium salt
Protocol: (§5) The relative activities of Compound (I) and Compound (C) against various intraperitioneal infections in mice evaluated by the minimum inhibitory concentrations and the means median protective doses (subcutaneously administered) are shown in Table 5.
(§6) Note: Compound (I) and Compound (C) were subjected to the test in the form of the sodium salt. For each test, five male ICR-SLC strain mice were used at each dose level. MIC was determined by the nutrient broth dilution method. In determination of PD50, subsutaneous treatment was carried out three times, i.e. 1, 3 and 5 hours after infection.

[16] = system: Staphylococcus aureus; assay: MIC, nutrient broth dilution (Table 5); format: cell-based; settings: Staphylococcus aureus strain A24, sodium salt
Protocol: as §5, §6

[17] = system: Pseudomonas aeruginosa; assay: MIC, nutrient broth dilution (Table 5); format: cell-based; settings: Pseudomonas aeruginosa strain TS, sodium salt
Protocol: as §5, §6

[18] = system: Streptococcus faecalis; assay: MIC, nutrient broth dilution (Table 5); format: cell-based; settings: Enterococcus faecalis, Streptococcus faecalis strain F10, sodium salt
Protocol: as §5, §6

[19] = pain when administered parenterally; format: in vivo; settings: relative to said penicillins
[20] = system: Enterobacter aerogenes; assay: Median MIC, clinical isolates, agar-plate dilution (Table 1); format: cell-based
Protocol: (§7) Note: Compound (I) and Compound (A) were subjected to the test in the form of the sodium salt. The minimum inhibitory concentration (MIC) was determined using the agar-plate dilution method recommended by Japan Society of Chemotherapy.

[21] = system: Escherichia; assay: as above; format: cell-based; settings: read-out: Median minimum inhibitory concentration
Protocol: as §7

[22] = system: Serratia; assay: as above; format: cell-based
Protocol: as §7

[23] = system: Proteus morganii; assay: as above; format: cell-based
Protocol: as §7

[24] = system: Proteus vulgaris; assay: as above; format: cell-based
Protocol: as §7

[25] = system: Klebsiella pneumoniae; assay: as above; format: cell-based
Protocol: as §7

[26] = system: Staphylococcus aureus; assay: as above; format: cell-based; settings: 37 clinical isolates, sodium salt, read-out: Median minimum inhibitory concentration
Protocol: as §7

[27] = system: Pseudomonas aeruginosa; assay: as above; format: cell-based; settings: 49 clinical isolates, sodium salt, read-out: Median minimum inhibitory concentration
Protocol: as §7

CC1(C)S[C@@H]2[C@H](NC(=O)[C@H](NC(=O)c3ccnnc3O)c3ccc(O)cc3)C(=O)N2[C@H]1C(=O)O [Compound (I), 6-[D-2-(3-hydroxypyridazine-4-carbonamido)-2-(p-hydroxyphenyl)acetamido]penicillanic acid]
solubility in pharmaceutical diluents [1]: higher solubility
antibacterial activity relative to Compound (C) ([2]; Escherichia coli): inferior
MIC ([2]; Escherichia coli strain NIHJ, sodium salt): 6.25 µg/mL
MIC [3]: 0.025 µg/mL
MIC [4]: 12.5 µg/mL
antibacterial activity relative to Compound (C) ([5]; Proteus mirabilis): inferior
MIC ([5]; Proteus mirabilis strain GN2425, sodium salt): 6.25 µg/mL
antibacterial activity relative to Compound (C) ([6]; Staphylococcus aureus): superior
MIC ([6]; Staphylococcus aureus strain 209P, sodium salt): 0.39 µg/mL
MIC [7]: 1.56 µg/mL
dose excreted at 6 h ([8]; 0-6 hr.): 54%
dose excreted at 24 h ([8]; 0-24 hr.): 55%
dose excreted at 24 h ([8]; 6-24 hr.): 1%
ED50 ([9]; E. coli strain NIHJ, male ICR-SLC mice): 3.2 mg/kg
ED50 ([9]; E. coli strain No. 37, male ICR-SLC mice): 31 mg/kg
PD50 relative to Compound (A) and Compound (B) ([10]; mice): markedly superior
ED50 ([10]; K. pneumoniae strain No. 1, male ICR-SLC mice): 25 mg/kg
ED50 ([10]; K. pneumoniae strain No. 6, male ICR-SLC mice): 36 mg/kg
ED50 ([10]; K. pneumoniae strain No. 20, male ICR-SLC mice): 31 mg/kg
PD50 relative to Compound (A) and Compound (B) ([11]; mice): markedly superior
ED50 ([11]; P. aeruginosa strain NC-5, male ICR-SLC mice): 22 mg/kg
ED50 ([11]; P. aeruginosa strain T, male ICR-SLC mice): 35 mg/kg
MIC50 ([12]; 37 strains, agar-plate dilution, sodium salt, read-out: Median minimum inhibitory concentration): 15 µg/mL
antibacterial activity relative to Compound (C) ([12]; clinical isolates): superior
MIC50 ([13]; Enterococcus faecalis, 23 strains, agar-plate dilution, sodium salt, read-out: Median minimum inhibitory concentration): 2 µg/mL
antibacterial activity relative to Compound (C) ([13]; clinical isolates): superior
concentration at 0.5 h ([14]; 1/2 hr.): 35000 ng/mL
concentration at 0.25 h ([14]; 1/4 hr.): 69000 ng/mL
concentration at 1 h ([14]; 1 hr.): 14000 ng/mL
concentration at 2 h ([14]; 2 hr.): 3000 ng/mL
MIC [15]: 6.25 µg/mL
MIC [16]: 0.39 µg/mL
MIC [17]: 6.25 µg/mL
MIC [18]: 1.56 µg/mL
pain when administered parenterally [19]: weaker pain
MIC50 ([20]; Klebsiella aerogenes, 8 clinical isolates, sodium salt, read-out: Median minimum inhibitory concentration): 25 µg/mL
antibacterial activity relative to Compound (A) ([20]; clinical isolates): superior
MIC50 [21]: 12 µg/mL (≈ 24.6 µM)
MIC50 ([22]; 6 clinical isolates, sodium salt, read-out: Median minimum inhibitory concentration): 31 µg/mL
antibacterial activity relative to Compound (A) ([22]; clinical isolates): superior
MIC50 ([23]; Morganella morganii, 14 clinical isolates, sodium salt, read-out: Median minimum inhibitory concentration): 4.4 µg/mL
antibacterial activity relative to Compound (A) ([23]; clinical isolates): superior
MIC50 ([24]; 7 clinical isolates, sodium salt, read-out: Median minimum inhibitory concentration): 8.8 µg/mL
antibacterial activity relative to Compound (A) ([24]; clinical isolates): superior
MIC50 ([25]; 26 clinical isolates, sodium salt, read-out: Median minimum inhibitory concentration): 21 µg/mL
antibacterial activity relative to Compound (A) ([25]; clinical isolates): superior
MIC50 [26]: 13 µg/mL
MIC50 [27]: 10 µg/mL
